The source of these data is PubChem BioAssay (NCI).

Several values for one entry are separate records, joined by “and”; a condition that tells them apart may be missing. Equal values may be shown once.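 The compound was tested at five concentrations on cells cultured in 96-well plates, with a 48-hour exposure period. GI50 marks 50% less growth. TGI denotes the concentration required for complete inhibition of growth.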

Among the test systems are OVCAR-5 ovarian; UACC-257 melanoma; MALME-3M melanoma; HT29 colon; HOP-62 NSCLC; UACC-62 melanoma; IGROV1 ovarian; U251 CNS; CCRF-CEM leukemia.
Common to all, as to experiment: NCI tumour cell line growth inhibition, 48 h

Turning to `N#CC(C(=O)CCCC(=O)Nc1ccc(Cl)cc1Cl)c1ccc(Cl)cc1` (stereo unspecified), the TGI in the test with OVCAR-5 ovarian, in the test with UACC-257 melanoma, in the test on MALME-3M melanoma, with HT29 colon, with HOP-62 NSCLC and in the test with UACC-62 melanoma was over 100 µM each time. This molecule also gave a TGI with IGROV1 ovarian of over 100 µM.

Consider `CC(C)[Si](OCC1CC(C#N)OC(C)(C)O1)(C(C)C)C(C)C` (stereo unspecified), for which the TGI with U251 CNS is 30 µM; in the test with OVCAR-5 ovarian, over 100 µM; in the test on UACC-257 melanoma, 42.7 µM; with MALME-3M melanoma, 57.6 µM; in the test on HT29 colon, 37.5 µM; in the test on CCRF-CEM leukemia, 39.1 µM. In addition, the TGI in the test with HOP-62 NSCLC was 44.3 µM; in the test on UACC-62 melanoma, over 100 µM; in the test on IGROV1 ovarian, over 100 µM.

Consider `Cc1noc(/N=C2\C=C(Nc3onc(C)c3C)C(=O)c3ccccc32)c1C`, for which the TGI with U251 CNS, with OVCAR-5 ovarian, in the test with UACC-257 melanoma, with MALME-3M melanoma, in the test with HT29 colon and in the test with CCRF-CEM leukemia was over 100 µM each time. Also, the TGI in the test with HOP-62 NSCLC, in the test on UACC-62 melanoma and in the test with IGROV1 ovarian was over 100 µM each time.

Take `O=CCCCC(Sc1ccccc1)Sc1ccccc1`: the TGI is 30.3 µM in the test with U251 CNS; 48.5 µM in the test with UACC-257 melanoma; 44.6 µM with CCRF-CEM leukemia; over 100 µM with HOP-62 NSCLC; 24.5 µM in the test with UACC-62 melanoma; 50.5 µM in the test on IGROV1 ovarian.

`COc1ccc(NC(=O)C2C(=O)N(c3ccc(OC)cc3)C(=O)/C2=N\NC(N)=O)cc1` (stereo unspecified): the TGI in the test on U251 CNS is 35.4 µM; in the test with OVCAR-5 ovarian, over 100 µM; in the test with UACC-257 melanoma, over 100 µM; with MALME-3M melanoma, 68.5 µM; in the test with HT29 colon, over 100 µM; in the test with HOP-62 NSCLC, 32.9 µM. Further, the figures for the TGI in the test on UACC-62 melanoma and in the test with IGROV1 ovarian were 46.7 µM and 45 µM, respectively.

`CC(=O)NC(CCCN(Cc1ccccc1)C(=O)N(C)N=O)C(=O)NCc1ccccc1` (stereo unspecified): the TGI with U251 CNS, in the test on OVCAR-5 ovarian, in the test with UACC-257 melanoma, in the test on MALME-3M melanoma, in the test on HT29 colon and in the test on CCRF-CEM leukemia was over 100 µM throughout. Besides, the TGI in the test on HOP-62 NSCLC, in the test on UACC-62 melanoma and in the test with IGROV1 ovarian was over 100 µM throughout.

With `CCOC(=O)CC(NC(=O)c1ccc(N=NN(C)C)cc1)C(=O)OCC` (stereo unspecified), the TGI in the test with U251 CNS, in the test with OVCAR-5 ovarian, with UACC-257 melanoma, with MALME-3M melanoma, in the test with HT29 colon and with CCRF-CEM leukemia was over 100 µM throughout. The TGI in the test on HOP-62 NSCLC, in the test on UACC-62 melanoma and in the test with IGROV1 ovarian was over 100 µM throughout.

Take `c1ccc(-c2nnc3nn4c(-c5ccccc5)cnnc4c3c2-c2ccccc2)cc1`: the TGI in the test on U251 CNS, in the test on OVCAR-5 ovarian, in the test on UACC-257 melanoma, with MALME-3M melanoma, in the test with HT29 colon and with CCRF-CEM leukemia was over 100 µM throughout. Also, the TGI with UACC-62 melanoma was over 100 µM.

Consider `O=C(/C=C/C1C(=O)NC(=O)NC1=O)CC(=O)C(=O)Nc1cc(Cl)c(Cl)cc1Cl`, for which the TGI in the test on U251 CNS, in the test with OVCAR-5 ovarian, in the test on UACC-257 melanoma, in the test with MALME-3M melanoma, in the test on HT29 colon and in the test with CCRF-CEM leukemia was over 100 µM throughout. In addition, the TGI with HOP-62 NSCLC, in the test with UACC-62 melanoma and with IGROV1 ovarian was over 100 µM throughout.

As for `CC(=O)[C-](C(C)=O)c1ccccc1.CC(=O)[C-](C(C)=O)c1ccccc1.CC(=O)[C-](C(C)=O)c1ccccc1.[Cl-].[Zr+4]`, the GI50 was 58 µM with U251 CNS; over 100 µM in the test on OVCAR-5 ovarian; over 100 µM with UACC-257 melanoma; over 100 µM in the test with MALME-3M melanoma; over 100 µM in the test with HT29 colon; over 100 µM with HOP-62 NSCLC. Also, the GI50 in the test with UACC-62 melanoma and with IGROV1 ovarian was over 100 µM throughout. The TGI in the test with U251 CNS, with OVCAR-5 ovarian, in the test with UACC-257 melanoma, with MALME-3M melanoma, with HT29 colon and in the test with HOP-62 NSCLC was over 100 µM in each case. Besides, the TGI with UACC-62 melanoma and in the test on IGROV1 ovarian was over 100 µM each time.

On to `S=c1c2ccccc2c(=S)n2n1CC=CC2`, for which the TGI in the test on U251 CNS, in the test on OVCAR-5 ovarian, with UACC-257 melanoma, in the test on MALME-3M melanoma, in the test on HT29 colon and in the test on CCRF-CEM leukemia was over 100 µM in each case. For the same molecule, the TGI in the test with UACC-62 melanoma and with IGROV1 ovarian was over 100 µM throughout.

As for `CCc1cc(Cc2ccc(C)c(NC(=O)C(=O)C3C(=O)NC(=O)NC3=O)c2CC)cc(C)c1NC(=O)C(=O)C1C(=O)NC(=O)NC1=O`, the TGI in the test with U251 CNS, in the test on OVCAR-5 ovarian, in the test on UACC-257 melanoma, with MALME-3M melanoma, in the test on CCRF-CEM leukemia and in the test on HOP-62 NSCLC was over 100 µM each time. The TGI in the test on UACC-62 melanoma and in the test with IGROV1 ovarian was over 100 µM each time.

Regarding `Cc1c2ccncc2c(C)c2c1[nH]c1ccc(Cl)cc12`, the GI50 in the test on U251 CNS is 1.49 µM; in the test on OVCAR-5 ovarian, 4.32 µM; in the test on UACC-257 melanoma, 5.39 µM and 2.34 µM; with MALME-3M melanoma it was 3.63 µM; in the test on HT29 colon, 1.04 µM; in the test with HOP-62 NSCLC, 2.66 µM. Also, the GI50 in the test with UACC-62 melanoma is 4.13 µM; in the test with IGROV1 ovarian it was 3.88 µM. The TGI in the test with U251 CNS was 11.5 µM and 2.94 µM; in the test with OVCAR-5 ovarian, 16.6 µM and 16.3 µM; in the test on UACC-257 melanoma, 12 µM and 12.8 µM; with MALME-3M melanoma, 14.3 µM and 15.2 µM; in the test on HT29 colon, 9.24 µM and 2.52 µM; in the test with CCRF-CEM leukemia it was 4.43 µM and 6.3 µM. The TGI with HOP-62 NSCLC was 13.9 µM and 9.86 µM; in the test with UACC-62 melanoma, 11.1 µM and 17 µM; in the test with IGROV1 ovarian it was 13.7 µM and 21.1 µM.

As to `CC1=CC(=O)NP(=O)(C23CC4CC(CC(C4)C2)C3)N1` (stereo unspecified), the TGI in the test with U251 CNS, in the test on OVCAR-5 ovarian, with UACC-257 melanoma, in the test on MALME-3M melanoma, with HT29 colon and in the test on CCRF-CEM leukemia was over 100 µM in each case. Moreover, the TGI in the test with HOP-62 NSCLC, in the test with UACC-62 melanoma and in the test on IGROV1 ovarian was over 100 µM each time.
